Experimental data: PubChem BioAssay (NCI)
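Interpolation was linear, between the two tested concentrations surrounding the appropriate level; five concentrations were tested over 48 hours in 96-well plates. Definition used: TGI = concentration required for complete inhibition of growth.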

Legend:
Assay in all cases: DTP human tumour cell line panel, 48 h
[1] = tested on: SNB-19 CNS
[2] = tested on: NCI-H226 lung
[3] = tested on: HCT-15 colon
[4] = tested on: EKVX NSCLC
[5] = tested on: NCI-H460 lung
[6] = tested on: CCRF-CEM leukemia
[7] = tested on: SF-268 CNS
[8] = tested on: OVCAR-5 ovarian
[9] = tested on: SF-539 CNS
[10] = tested on: SK-MEL-28 melanoma
[11] = tested on: PC-3 prostate
[12] = tested on: MDA-MB-231 breast
[13] = tested on: OVCAR-3 ovarian
[14] = tested on: SK-OV-3 ovarian
[15] = tested on: MDA-N
[16] = tested on: BT-549 breast
[17] = tested on: SK-MEL-5 melanoma
[18] = tested on: HCC-2998 colon
[19] = tested on: UO-31 renal
[20] = tested on: A498 renal
[21] = tested on: SK-MEL-2 melanoma
[22] = tested on: HCT-116 colon
[23] = tested on: T-47D breast
[24] = tested on: UACC-257 melanoma
[25] = tested on: COLO 205 colon
[26] = tested on: SF-295 CNS
[27] = tested on: UACC-62 melanoma
[28] = tested on: HL-60(TB) leukemia
[29] = tested on: OVCAR-4 ovarian
[30] = tested on: HOP-62 NSCLC
[31] = tested on: HT29 colon
[32] = tested on: SR leukemia
[33] = tested on: OVCAR-8 ovarian
[34] = tested on: NCI-H522 lung
[35] = tested on: KM12 colon
[36] = tested on: SW-620 colon
[37] = tested on: M14 melanoma
[38] = tested on: DU-145 prostate
[39] = tested on: 786-0 renal
[40] = tested on: U251 CNS
[41] = tested on: IGROV1 ovarian
[42] = tested on: A549 NSCLC
[43] = tested on: NCI-H23 lung
[44] = tested on: MCF7 breast
[45] = tested on: RXF 393 renal
[46] = tested on: MOLT-4 leukemia
[47] = tested on: ACHN renal
[48] = tested on: LOX IMVI melanoma
[49] = tested on: CAKI-1 renal
[50] = tested on: MALME-3M melanoma
[51] = tested on: SN12C renal
[52] = tested on: NCI/ADR-RES ovarian
[53] = tested on: RPMI-8226 leukemia
[54] = tested on: HS 578T breast
[55] = tested on: MDA-MB-435
[56] = tested on: TK-10 renal
[57] = tested on: K-562 leukemia
[58] = tested on: HOP-92 NSCLC
[59] = tested on: SNB-75 CNS

In the case of `COC(=O)/C=C/CC(=O)NS(C)(=O)=O`, the TGI [1] is reported as greater than 10 µM, the TGI [2] is reported as greater than 10 µM and the TGI [3] is reported as greater than 10 µM. For the same compound, the TGI [4] was greater than 10 µM, the TGI [5] was greater than 10 µM and the TGI [6] was greater than 10 µM. For the same compound, the TGI [7] was greater than 10 µM, the TGI [8] was greater than 10 µM and the TGI [9] was greater than 10 µM. For the same compound, the TGI [10] was greater than 10 µM, the TGI [11] was greater than 10 µM and the TGI [12] was greater than 10 µM. The TGI [13] was greater than 10 µM, the TGI [14] was greater than 10 µM and the TGI [15] was greater than 10 µM. It also gave a TGI [16] greater than 10 µM, a TGI [17] greater than 10 µM and a TGI [18] greater than 10 µM. The TGI [19] was greater than 10 µM, the TGI [20] was greater than 10 µM and the TGI [21] was greater than 10 µM. The TGI [22] was greater than 10 µM, the TGI [23] was greater than 10 µM and the TGI [24] was greater than 10 µM. The TGI [25] was greater than 10 µM, the TGI [26] was greater than 10 µM and the TGI [27] was greater than 10 µM. The TGI [28] was greater than 10 µM, the TGI [29] was greater than 10 µM and the TGI [30] was greater than 10 µM. For the same compound, the TGI [31] was greater than 10 µM, the TGI [32] was greater than 10 µM and the TGI [33] was greater than 10 µM. It also gave a TGI [34] greater than 10 µM, a TGI [35] greater than 10 µM and a TGI [36] greater than 10 µM. The TGI [37] was greater than 10 µM, the TGI [38] was greater than 10 µM and the TGI [39] was greater than 10 µM. For the same compound, the TGI [40] was greater than 10 µM, the TGI [41] was greater than 10 µM and the TGI [42] was greater than 10 µM. For the same compound, the TGI [43] was greater than 10 µM, the TGI [44] was greater than 10 µM and the TGI [45] was greater than 10 µM. The TGI [46] was greater than 10 µM, the TGI [47] was greater than 10 µM and the TGI [48] was greater than 10 µM. The TGI [49] was greater than 10 µM, the TGI [50] was greater than 10 µM and the TGI [51] was greater than 10 µM. It also gave a TGI [52] greater than 10 µM, a TGI [53] greater than 10 µM and a TGI [54] greater than 10 µM. It also gave a TGI [55] greater than 10 µM and a TGI [56] greater than 10 µM.

`Cc1ccc(-c2nc3cc(N4CCN(C)CC4)c(F)cc3[nH]2)cc1` was tested, and the TGI [1] was 58.9 µM, the TGI [2] was 38.3 µM and the TGI [3] was 21 µM. The TGI [4] was 70 µM, the TGI [5] was 32.6 µM and the TGI [6] was greater than 100 µM. For the same compound, the TGI [7] was 43.6 µM, the TGI [8] was 60.2 µM and the TGI [10] was 61.3 µM. For the same compound, the TGI [11] was greater than 100 µM, the TGI [12] was greater than 100 µM and the TGI [14] was 57.7 µM. For the same compound, the TGI [15] was 95.7 µM, the TGI [16] was 55.8 µM and the TGI [17] was 25.1 µM. For the same compound, the TGI [18] was 24.6 µM, the TGI [19] was 27.4 µM and the TGI [20] was 91.4 µM. It also gave a TGI [21] of 32 µM, a TGI [22] of 50 µM and a TGI [23] of 50.7 µM. For the same compound, the TGI [24] was 34.3 µM, the TGI [25] was 34.5 µM and the TGI [26] was 30.4 µM. For the same compound, the TGI [27] was 31.3 µM, the TGI [28] was 46 µM and the TGI [57] was greater than 100 µM. For the same compound, the TGI [29] was 59.3 µM, the TGI [30] was 29.3 µM and the TGI [32] was greater than 100 µM. The TGI [34] was 31.9 µM, the TGI [35] was 27 µM and the TGI [36] was greater than 100 µM. The TGI [37] was 31 µM, the TGI [58] was greater than 100 µM and the TGI [38] was greater than 100 µM. It also gave a TGI [39] of 39 µM, a TGI [40] greater than 100 µM and a TGI [41] of 90 µM. The TGI [42] was 49 µM, the TGI [43] was greater than 100 µM and the TGI [44] was 30.3 µM. For the same compound, the TGI [45] was 38.4 µM, the TGI [46] was greater than 100 µM and the TGI [47] was 70.5 µM. It also gave a TGI [48] of 94.3 µM, a TGI [49] greater than 100 µM and a TGI [50] of 31.2 µM. The TGI [51] was greater than 100 µM, the TGI [52] was greater than 100 µM and the TGI [53] was 75.5 µM. For the same compound, the TGI [54] was 29.1 µM, the TGI [55] was 48.1 µM and the TGI [56] was greater than 100 µM.

`COC(=O)C(=O)C(C(=O)C(=O)Nc1ccc([N+](=O)[O-])cc1[N+](=O)[O-])c1nc2ccc(Cl)cc2[nH]c1=O` (configuration not stated) was tested, and the TGI [1] was greater than 100 µM, the TGI [2] was greater than 100 µM and the TGI [3] was greater than 100 µM. The TGI [5] was greater than 100 µM, the TGI [7] was greater than 100 µM and the TGI [8] was greater than 100 µM. For the same compound, the TGI [9] was greater than 100 µM, the TGI [10] was greater than 100 µM and the TGI [11] was greater than 100 µM. For the same compound, the TGI [12] was greater than 100 µM, the TGI [13] was greater than 100 µM and the TGI [14] was greater than 100 µM. It also gave a TGI [15] greater than 100 µM, a TGI [16] greater than 100 µM and a TGI [17] greater than 100 µM. The TGI [18] was greater than 100 µM, the TGI [19] was greater than 100 µM and the TGI [20] was greater than 100 µM. It also gave a TGI [21] greater than 100 µM, a TGI [22] greater than 100 µM and a TGI [23] greater than 100 µM. The TGI [24] was greater than 100 µM, the TGI [25] was greater than 100 µM and the TGI [26] was greater than 100 µM. It also gave a TGI [27] greater than 100 µM, a TGI [28] greater than 100 µM and a TGI [57] greater than 100 µM. For the same compound, the TGI [29] was greater than 100 µM, the TGI [31] was greater than 100 µM and the TGI [32] was greater than 100 µM. The TGI [33] was greater than 100 µM, the TGI [35] was greater than 100 µM and the TGI [36] was greater than 100 µM. For the same compound, the TGI [37] was greater than 100 µM, the TGI [58] was greater than 100 µM and the TGI [38] was greater than 100 µM. For the same compound, the TGI [39] was greater than 100 µM, the TGI [40] was greater than 100 µM and the TGI [42] was greater than 100 µM. It also gave a TGI [43] greater than 100 µM, a TGI [44] greater than 100 µM and a TGI [45] greater than 100 µM. For the same compound, the TGI [46] was greater than 100 µM, the TGI [47] was greater than 100 µM and the TGI [59] was 73.1 µM. For the same compound, the TGI [48] was greater than 100 µM, the TGI [49] was greater than 100 µM and the TGI [51] was greater than 100 µM. The TGI [52] was greater than 100 µM, the TGI [53] was greater than 100 µM and the TGI [54] was 90.8 µM. The TGI [55] was greater than 100 µM.
